The text below walks through data of patent US20100113421A1, “NON-NUCLEOSIDE REVERSE TRANSCRIPTASE INHIBITORS” (priority 2006, published 2010).

The test system of assay [1] is HIV strain containing the Y181C mutation. The assay can be described thus: Spread assay, Y181C mutant strain. The class given is cell-based. On the procedure: (§1) Assays for the inhibition of acute HIV-1 infection of T-lymphoid cells (alternatively referred to herein as the “spread assay”) were conducted in accordance with Vacca, J. P. et al., Proc. Natl. Acad. Sci. USA 1994, 91: 4096. The assays (using 10% FBS) tested for inhibition of wild type HIV-1 and of HIV strains containing the Y181C or K103N mutation. […] (Note that the compound of Example 6 was tested only up to a 833 nM concentration and the CIC95 value was determined to be >833 nM. The compound of Example 78 was not tested in the Y1818C assay.) The compounds of Examples 1 to 119 (including Examples 70A and 70B) had CIC95 values of less than 1000 nanomolar in the assay employing the K103N mutant strain. In an analogous assay employing a mutant strain containing both the K103N and Y181C mutations, the compounds of Examples 70A, 70B and 78-115 had CIC95 values of less than 1000 nanomolar.

The test system of assay [2] is mutant strain containing both the K103N and Y181C mutations. The assay can be described thus: Spread assay, mutant strain containing both K103N and Y181C. The class given is cell-based, HIV. On the procedure: as §1
[3] abbreviates: Human immunodeficiency virus 1, spread assay, 10% FBS, Y181C mutant strain, read-out: CIC95.
[4] abbreviates: Human immunodeficiency virus 1, read-out: CIC95.
[5] abbreviates: Human immunodeficiency virus 1, analogous spread assay, K103N and Y181C double mutant strain, read-out: CIC95.

Like-named read-outs stand apart in the source and are kept apart here. Where only a bound is given, the exact number is not on record here.

With `CCCCc1c(C(=O)N(C)Cc2ccc3ncccc3c2)[nH]c(C(N)=O)c1S(=O)(=O)c1cccc(C)c1` [Example 67, 3-butyl-N-methyl-4-(3-methylphenylsulfonyl)-N-(6-quinolinylmethyl)-1H-pyrrole-2,5-dicarboxamide], the IC95 in assay [1] (setting [3]) is below 8 µM.
`CCCCc1c(C(=O)N(C)Cc2ccc3ncccc3c2)[nH]c(C(N)=O)c1S(=O)(=O)c1cccc(Cl)c1` [Example 68, 3-butyl-4-[(3-chlorophenyl)sulfonyl]-N-methyl-N-(6-quinolinylmethyl)-1H-pyrrole-2,5-dicarboxamide]: the IC95 in assay [1] (setting [3]) was below 8 µM.
On the same count and under the same terms, the same measure for `CCCCc1c(C(=O)N(C)Cc2ccc3ncccc3c2)[nH]c(C(N)=O)c1S(=O)(=O)c1cc(C)cc(C)c1` [Example 69, 3-butyl-4-[(3,5-dimethylphenyl)sulfonyl]-N-methyl-N-(6-quinolinylmethyl)-1H-pyrrole-2,5-dicarboxamide]: below 8 µM; for `CCCCc1c(C(=O)N(C)Cc2ccc3ncccc3c2)[nH]c(C(N)=O)c1S(=O)(=O)c1cc(Cl)cc(Cl)c1` [Example 70, 3-butyl-4-[(3,5-dichlorophenyl)sulfonyl]-N-methyl-N-(6-quinolinylmethyl)-1H-pyrrole-2,5-dicarboxamide]: below 8 µM.
For the compound `CC(C)c1c(C(=O)N(C)Cc2ccc3ncccc3c2Cl)[nH]c(C(N)=O)c1S(=O)(=O)c1ccccc1` [Example 70A, 3-isopropyl-N-methyl-4-(phenylsulfonyl)-N-[(5-chloroquinolin-6-yl)methyl]-1H-pyrrole-2,5-dicarboxamide], the IC95 was below 8 µM in assay [1] (setting [4]) and below 1 µM in assay [2] (setting [4]).
On the same counts, the results for `CC(C)c1c(C(=O)N(C)Cc2cc3cccnc3cc2Cl)[nH]c(C(N)=O)c1S(=O)(=O)c1ccccc1` [Example 70B, 3-isopropyl-N-methyl-4-(phenylsulfonyl)-N-[(7-chloroquinolin-6-yl)methyl]-1H-pyrrole-2,5-dicarboxamide] are below 8 µM and below 1 µM.
With `Cc1c(C(=O)N(C)Cc2ccc(Cl)cc2Cl)[nH]c(C(=O)NCc2n[nH]c3ccccc23)c1S(=O)(=O)c1ccccc1` [Example 71, N-(2,4-Dichlorobenzyl)-N′-(1H-indazol-3-ylmethyl)-N,3-dimethyl-4-(phenylsulfonyl)-1H-pyrrole-2,5-dicarboxamide], in assay [1] (setting [3]), the IC95 was below 8 µM.
For `CNC(=O)c1[nH]c(C(=O)N(C)Cc2ccc(Cl)cc2Cl)c(C)c1S(=O)(=O)c1ccccc1` [Example 72, N-(2,4-dichlorobenzyl)-N,N′,3-trimethyl-4-(phenylsulfonyl)-1H-pyrrole-2,5-dicarboxamide], the IC95 in assay [1] (setting [3]) was below 8 µM.
The same measure, in the same setting: the figure for `Cc1cnccc1CNC(=O)c1[nH]c(C(=O)N(C)Cc2ccc(Cl)cc2Cl)c(C)c1S(=O)(=O)c1ccccc1` [Example 73, N-(2,4-dichlorobenzyl)-N,3-dimethyl-N′-[(3-methyl-4-pyridinyl)methyl]-4-(phenylsulfonyl)-1H-pyrrole-2,5-dicarboxamide] is below 8 µM; for `Cc1c(C(=O)N(C)Cc2ccc(Cl)cc2Cl)[nH]c(C(=O)NCc2ccccn2)c1S(=O)(=O)c1ccccc1` [Example 74, N-(2,4-dichlorobenzyl)-N,3-dimethyl-4-(phenylsulfonyl)-N′-(2-pyridinylmethyl)-1H-pyrrole-2,5-dicarboxamide] it is below 8 µM; for `Cc1c(C(=O)N(C)Cc2ccc(Cl)cc2Cl)[nH]c(C(=O)NCc2cccnc2)c1S(=O)(=O)c1ccccc1` [Example 75, N-(2,4-dichlorobenzyl)-N,3-dimethyl-4-(phenylsulfonyl)-N′-(3-pyridinylmethyl)-1H-pyrrole-2,5-dicarboxamide] it is below 8 µM.
Turning to `Cc1c(C(=O)N(C)Cc2ccc(Cl)cc2Cl)[nH]c(C(=O)NCc2nccs2)c1S(=O)(=O)c1ccccc1` [Example 76, N-(2,4-dichlorobenzyl)-N,3-dimethyl-4-(phenylsulfonyl)-N′-(1,3-thiazol-2-ylmethyl)-1H-pyrrole-2,5-dicarboxamide], the IC95 in assay [1] (setting [3]) was below 8 µM.
The same measure, in the same setting: the figure for `Cc1c(C(=O)N(C)Cc2ccc(Cl)cc2Cl)[nH]c(C(=O)NCc2c(F)cccc2Cl)c1S(=O)(=O)c1ccccc1` [Example 77, N′-(2-chloro-6-fluorobenzyl)-N-(2,4-dichlorobenzyl)-N,3-dimethyl-4-(phenylsulfonyl)-1H-pyrrole-2,5-dicarboxamide] is below 8 µM.
Regarding `Cc1c(C(=O)N2CCCc3ccccc3C2)[nH]c(C(N)=O)c1S(=O)(=O)c1ccccc1` [Example 78, 4-Methyl-3-(phenylsulfonyl)-5-(1,3,4,5-tetrahydro-2H-2-benzazepine-2-ylcarbonyl)-1H-pyrrole-2-carboxamide], in assay [2] (setting [5]), the IC95 was below 1 µM.
For `Cc1cc(C)cc(S(=O)(=O)c2c(C(N)=O)[nH]c(C(=O)N3CCCc4ccccc4C3)c2C)c1` [Example 79, 4-Methyl-3-(3,5-dimethylphenylsulfonyl)-5-(1,3,4,5-tetrahydro-2H-2-benzazepine-2-ylcarbonyl)-1H-pyrrole-2-carboxamide], the IC95 is below 8 µM in assay [1] (setting [3]) and below 1 µM in assay [2] (setting [5]).
On the same counts, the results for `Cc1cc(C)cc(S(=O)(=O)c2c(C(N)=O)[nH]c(C(=O)N3CCCc4sccc4C3)c2C)c1` [Example 80, 3-[(3,5-Dimethylphenyl)sulfonyl]-4-methyl-5-(4,6,7,8-tetrahydro-5H-thieno[3,2-c]azepin-5-ylcarbonyl)-1H-pyrrole-2-carboxamide] are below 8 µM and below 1 µM.
On the same counts, the results for `COc1ccc2c(c1)CN(C(=O)c1[nH]c(C(N)=O)c(S(=O)(=O)c3cc(Cl)cc(Cl)c3)c1C)CCC2` [Example 81, 3-[(3,5-dichlorophenyl)sulfonyl]-4-methyl-5-(8-methoxy-1,3,4,5-tetrahydro-2H-2-benzazepin-2-ylcarbonyl)-1H-pyrrole-2-carboxamide] are below 8 µM and below 1 µM.
On the same counts, the results for `Cc1c(C(=O)N2CCCc3ccc(O)cc3C2)[nH]c(C(N)=O)c1S(=O)(=O)c1cc(Cl)cc(Cl)c1` [Example 82, 3-[(3,5-dichlorophenyl)sulfonyl]-4-methyl-5-(8-hydroxy-1,3,4,5-tetrahydro-2H-2-benzazepin-2-ylcarbonyl)-1H-pyrrole-2-carboxamide] are below 8 µM and below 1 µM.
In the case of `Cc1c(C(=O)N2CCCc3ccccc3C2)[nH]c(C(N)=O)c1S(=O)(=O)c1cc(Cl)cc(Cl)c1` [Example 83, 3-[(3,5-dichlorophenyl)sulfonyl]-4-methyl-5-(1,3,4,5-tetrahydro-2H-2-benzazepin-2-ylcarbonyl)-1H-pyrrole-2-carboxamide], the IC95 in assay [1] (setting [3]) is below 8 µM; in assay [2] (setting [5]), below 1 µM.
Regarding `Cc1c(C(=O)N2CCCc3sccc3C2)[nH]c(C(N)=O)c1S(=O)(=O)c1cc(Cl)cc(Cl)c1` [Example 84, 3-[(3,5-dichlorophenyl)sulfonyl]-4-methyl-5-(4,6,7,8-tetrahydro-5H-thieno[3,2-c]azepin-5-ylcarbonyl)-1H-pyrrole-2-carboxamide], the IC95 is below 8 µM in assay [1] (setting [3]) and below 1 µM in assay [2] (setting [5]).
On the same counts, the results for `COc1ccc2c(c1)CCCN(C(=O)c1[nH]c(C(N)=O)c(S(=O)(=O)c3cc(Cl)cc(Cl)c3)c1C)C2` [Example 85, 3-[(3,5-dichlorophenyl)sulfonyl]-4-methyl-5-(7-methoxy-1,3,4,5-tetrahydro-2H-2-benzazepin-2-ylcarbonyl)-1H-pyrrole-2-carboxamide] are below 8 µM and below 1 µM.
For `Cc1c(C(=O)N2CCCc3cc(O)ccc3C2)[nH]c(C(N)=O)c1S(=O)(=O)c1cc(Cl)cc(Cl)c1` [Example 86, 3-[(3,5-dichlorophenyl)sulfonyl]-4-methyl-5-(7-hydroxy-1,3,4,5-tetrahydro-2H-2-benzazepin-2-ylcarbonyl)-1H-pyrrole-2-carboxamide], the IC95 in assay [1] (setting [3]) is below 8 µM; in assay [2] (setting [5]), below 1 µM.
For `COc1ccc2c(c1)CCCN(C(=O)c1[nH]c(C(N)=O)c(S(=O)(=O)c3cc(C)cc(C)c3)c1C)C2` [Example 87, 3-[(3,5-dimethylphenyl)sulfonyl]-4-methyl-5-(7-methoxy-1,3,4,5-tetrahydro-2H-2-benzazepin-2-ylcarbonyl)-1H-pyrrole-2-carboxamide], in that order: below 8 µM and below 1 µM.
As for `Cc1c(C(=O)N(C)Cc2ccc(Cl)cc2Cl)[nH]c(C(N)=O)c1S(=O)(=O)N1CCCC1` [Example 116, N-(2,4-dichlorobenzyl)-N,3-dimethyl-4-(1-pyrrolidinylsulfonyl)-1H-pyrrole-2,5-dicarboxamide], in assay [1] (setting [3]), the IC95 was below 8 µM.
On the same count and under the same terms, the figure for `Cc1c(C(=O)N(C)Cc2ccccc2Cl)[nH]c(C(=O)NCc2ccccn2)c1S(=O)(=O)N1CCCC1` [Example 117, N-(2-chlorobenzyl)-N,3-dimethyl-N′-(2-pyridinylmethyl)-4-(1-pyrrolidinylsulfonyl)-1H-pyrrole-2,5-dicarboxamide] is below 8 µM.
On the same count and under the same terms, the same measure for `Cc1c(C(=O)N(C)Cc2ccc(Cl)cc2Cl)[nH]c(C(N)=O)c1S(=O)(=O)N1CCCCC1` [Example 118, N-(2,4-dichlorobenzyl)-N,3-dimethyl-4-(1-piperidinylsulfonyl)-1H-pyrrole-2,5-dicarboxamide]: below 8 µM; for `Cc1c(C(=O)N(C)Cc2ccccc2Cl)[nH]c(C(N)=O)c1S(=O)(=O)N1CCCCC1` [Example 119, N-(2-chlorobenzyl)-N,3-dimethyl-4-(1-piperidinylsulfonyl)-1H-pyrrole-2,5-dicarboxamide]: below 8 µM.
